Measurements reported in patent US5036055A, “Acylated derivatives of etoposide” (Bristol-Myers Company, priority 1989, dated 1991).
≈ marks a conversion by molar mass, not a printed value. Like-named read-outs stand apart in the source and are kept apart here.

Assays:
P388 leukemia = assay: in vivo antitumor activity against murine transplantable P388 leukemia; parameters: species or system murine (female CDF1 mice)
Protocol: Representative compounds of the present invention were evaluated for antitumor activity against murine transplantable P388 leukemia. Female CDF1 mice were inoculated intraperitoneally with 0.4 ml of diluted ascitic fluid containing 10^6 lymphocytic leukemia P388 cells. […] The percent increase of median survival time (MST) of treated animals over that of untreated control animals was determined and reported as % T/C. Compounds showing % T/C values of 125 or greater are considered to have significant antitumor activity. Table I presents the results of the in vivo evaluation; only the maximum % T/C and the dose giving the maximum effects are reported.

B16-F10 murine melanoma = assay: in vitro cytotoxicity against B16-F10 murine melanoma (neutral red, 540 nm); format: cell-based; settings: Mus musculus, 72 hours incubation
Protocol: (§1) In vitro cytotoxicity of compounds of the present invention was evaluated against B16-F10 murine melanoma and Moser human colon carcinoma cell lines. Exponentially growing B16-F10 and Moser cells were harvested, counted and suspended in the culture medium at the concentrations of 1.5×10^4 and 3×10^4 cells/ml, respectively. Twenty-four hours after planting cell suspension (180 mcl) into wells of a 96-well microtiter plate, test materials (20 mcl) were added to the wells and the plates were incubated for 72 hours. The cytotoxic activities against the tumor cells were colorimetrically determined at 540 nm after staining viable cells with neutral red solution.

[1] = tested on: Moser human colon carcinoma; assay: in vitro cytotoxicity against Moser human colon carcinoma (neutral red, 540 nm); format: cell-based; settings: 72 hours incubation
Protocol: as §1

[2] = 120 mg/kg/day, i.p. single dose on day 1, CDF1 mice
[3] = Mus musculus, P388, ip, 1200 h, read-out: % T/C MST
[4] = Mus musculus, P388, ip, 1200 h, 30 mg/kg/day, i.p. single dose on day 1, maximum % T/C at dose giving maximum effect, CDF1 mice, 50 days, read-out: % T/C MST
[5] = Mus musculus, P388, ip, 1200 h, 120 mg/kg/day, i.p. single dose on day 1, maximum % T/C at dose giving maximum effect, CDF1 mice, 50 days, read-out: % T/C MST

Row | Structure (SMILES) | IC50 (B16-F10 murine melanoma) [µg/mL] | IC50 [1] [µg/mL] | response vs control in vivo at 30 mg/kg (P388 leukemia; [4]) [%] | response vs control in vivo at 120 mg/kg (P388 leukemia; [5]) [%] | other results
1 | COc1cc([C@@H]2c3cc4c(cc3[C@@H](O[C@@H]3O[C@@H]5CO[C@@H](C)O[C@H]5[C@H](O)[C@H]3O)[C@H]3COC(=O)[C@H]23)OCO4)cc(OC)c1O [Etoposide, etoposide] | 0.45 (≈ 0.765 µM) |  |  |  | Number of survivors/tested on day 50 (P388 leukemia; [2]): 6/12; response vs control in vivo at 30 mg/kg (P388 leukemia; [3]): 182%; response vs control in vivo at 120 mg/kg (P388 leukemia; [3]): > 390%
2 | COc1cc([C@@H]2c3cc4c(cc3[C@@H](O[C@@H]3O[C@@H]5CO[C@@H](C)O[C@H]5[C@H](OC(C)=O)[C@H]3OC(C)=O)[C@H]3COC(=O)[C@H]23)OCO4)cc(OC)c1O [Example 1, 2",3"-di-0-acetyl etoposide] | 1.3 (≈ 1.93 µM) | < 0.8 | 165 |  | 
3 | COc1cc([C@@H]2c3cc4c(cc3[C@@H](O[C@@H]3O[C@@H]5CO[C@@H](C)O[C@H]5[C@H](O)[C@H]3OC(C)=O)[C@H]3COC(=O)[C@H]23)OCO4)cc(OC)c1O [Example 3, 2"-0-acetyl etoposide] | 1.6 (≈ 2.54 µM) | 1.1 (≈ 1.74 µM) | 240 |  | 
4 | COc1cc([C@@H]2c3cc4c(cc3[C@@H](O[C@@H]3O[C@@H]5CO[C@@H](C)O[C@H]5[C@H](OC(C)=O)[C@H]3O)[C@H]3COC(=O)[C@H]23)OCO4)cc(OC)c1O [Example 4, 3"-0-acetyl-etoposide] | 1.4 (≈ 2.22 µM) |  | 210 |  | 
5 | COc1cc([C@@H]2c3cc4c(cc3[C@@H](O[C@@H]3O[C@@H]5CO[C@@H](C)O[C@H]5[C@H](OC=O)[C@H]3OC=O)[C@H]3COC(=O)[C@H]23)OCO4)cc(OC)c1O [Example 6, 2",3"-di-0-formyl etoposide] | 2 (≈ 3.1 µM) | 0.84 (≈ 1.3 µM) |  | > 500 | Number of survivors/tested on day 50 (P388 leukemia; [2]): 3/4
6 | COc1cc([C@@H]2c3cc4c(cc3[C@@H](O[C@@H]3O[C@@H]5CO[C@@H](C)O[C@H]5[C@H](O)[C@H]3OC(=O)c3ccccc3)[C@H]3COC(=O)[C@H]23)OCO4)cc(OC)c1O [Example 8, 2"-0-benzoyletoposide] | 0.92 (≈ 1.33 µM) |  |  | 145 | 
7 | COc1cc([C@@H]2c3cc4c(cc3[C@@H](O[C@@H]3O[C@@H]5CO[C@@H](C)O[C@H]5[C@H](OC(=O)c5ccccc5)[C@H]3O)[C@H]3COC(=O)[C@H]23)OCO4)cc(OC)c1O [Example 9, 3"-0-Benzoyletoposide] | 0.17 (≈ 0.245 µM) | 0.83 (≈ 1.2 µM) |  |  | Number of survivors/tested on day 50 (P388 leukemia; 60 mg/kg/day, i.p. single dose on day 1, CDF1 mice): 1/4; response vs control in vivo at 60 mg/kg (P388 leukemia; Mus musculus, P388, ip, 1200 h, 60 mg/kg/day, i.p. single dose on day 1, maximum % T/C at dose giving maximum effect, CDF1 mice, 50 days, read-out: % T/C MST): 420%
8 | COc1cc([C@@H]2c3cc4c(cc3[C@@H](O[C@@H]3O[C@@H]5CO[C@@H](C)O[C@H]5[C@H](OC(=O)c5ccccc5)[C@H]3OC(=O)c3ccccc3)[C@H]3COC(=O)[C@H]23)OCO4)cc(OC)c1O [Example 10, 2",3"-0-di-benzoyletoposide] | 4.4 (≈ 5.52 µM) |  |  | 125 | 
